Data taken from patent US9790211B2, “5-amino-quinoline-8-carboxamide derivatives as 5-HT4 receptor agonists” (SUVEN LIFE SCIENCES LIMITED, priority 2013, dated 2017).
Read-outs that look alike come from different tables or passages of the source.

Assays:
[1] = Rodent pharmacokinetic study; type: in vivo, Male wistar rats; conditions: plasma, Wistar/Male rat; for bioavailability: 3 mg/kg oral vs 1 mg/kg intravenous
Method: Male wistar rats (225±25 grams) were used as experimental animals. Three to five animals were housed in each cage. Two days prior to dosing day, male wistar rats (225-250 grams) were anesthetized with isoflurane for surgical placement of jugular vein catheter. Animals were fasted over night before oral dosing (p.o) and food pellets were allowed 2 hours post dosing, whereas during intravenous dosing food and water were provided as ad libitum. Three rats were dosed with compounds of formula (I) (3 mg/kg) orally and intravenously (1 mg/kg).
At each time point blood was collected through jugular vein and immediately replenish with an equivalent volume of normal saline from freely moving rats. Collected blood was transferred into a labeled eppendr off containing 10 μL of heparin as anticoagulant. Typically blood samples were collected as following time points: Pre dose, 0.08 (only i.v.), 0.25, 0.5, 1, 2, 4, 6, 8, and 24 hours post dose (n=3). Blood was centrifuged at 4000 rpm for 10 minutes. Plasma was prepared and stored frozen at −20° C. until analysis. The concentrations of the compounds of formula (I) were quantified in plasma by qualified LC-MS/MS method using suitable extraction technique. The compounds of formula (I) were quantified in the calibration range around 2-2000 ng/mL in plasma. Study samples were analyzed using calibration samples in the batch and quality control samples spread across the batch.
Pharmacokinetic parameters Cmax, Tmax, AUC1, T1/2 and Bioavailability were calculated by non-compartmental model using standard non-coinpartmental model by using WinNonLin 5.0.1 or Phoenix WinNonlin 6.2 version Software package.

[2] = Rodent brain penetration study; type: in vivo, Male Wistar rats; conditions: 3 mg/kg oral (gavage)
Method: Male Wistar rats (225±25 grams) were used as experimental animals. Three animals were housed in each cage. Animals were given water and food ad libitum throughout the experiment and maintained on a 12 hours light/dark cycle. Brain penetration was determined in discrete manner in rats. One day prior to dosing day, male wistar rats (225-250 grams) were acclimatized. After acclimatization the rats were grouped according to their weight. In each group, 3 animals were kept in individual cage and allowed free access to food and water. At each time point (0.50, 1, and 2 hours) n=3 animals were used. The compounds of formula (I) were suitably preformulated and administered orally at (free base equivalent) 3 mg/kg. Blood samples were removed via, cardiac puncture by using isoflurane anesthesia. The animals were sacrificed to collect brain tissue. Plasma was separated and brain samples were homogenized and stored frozen at −20° C. until analysis. The concentrations of the compounds of formula (I) in plasma and brain were determined using LC-MS/MS method. The compounds of formula (I) were quantified in plasma and brain homogenate by qualified LC-MS/MS method using suitable extraction technique. The compounds of formula (I) were quantified in the calibration range of 1-500 ng/mL in plasma and brain homogenate. Study samples were analyzed using calibration samples in the batch and quality control samples spread across the batch. Extent of brain-plasma ratio was calculated (Cb/Cp).

[3] = molecular target: T1, recombinant human 5-HT4 receptor (Homo sapiens, UniProt Q13639); assay: Determination of EC50 values for 5-HT4 receptor (CHO cells, pCRE-Luc reporter); type: cell-based; conditions: for EC50: 4 hours incubation; for Emax: CHO
T1 construct: expressed in transfected cells
T1 sequence (Q13639 whole entry): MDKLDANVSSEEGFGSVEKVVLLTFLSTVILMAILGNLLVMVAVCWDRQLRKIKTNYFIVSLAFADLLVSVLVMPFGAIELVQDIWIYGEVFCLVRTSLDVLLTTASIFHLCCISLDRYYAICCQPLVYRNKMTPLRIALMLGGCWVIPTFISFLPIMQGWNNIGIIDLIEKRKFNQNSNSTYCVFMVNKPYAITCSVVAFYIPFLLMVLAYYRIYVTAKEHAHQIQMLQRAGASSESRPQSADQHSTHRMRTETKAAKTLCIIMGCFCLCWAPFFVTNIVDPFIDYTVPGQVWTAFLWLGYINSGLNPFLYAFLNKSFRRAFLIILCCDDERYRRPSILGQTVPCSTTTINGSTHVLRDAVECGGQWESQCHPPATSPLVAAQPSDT
How it was run: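 CHO cells stably expressing human 5-HT4 receptor with a CRE-luciferase reporter, serum-starved overnight, then exposed to increasing compound concentrations in OptiMEM for 4 h at 37 °C. Cells lysed and luciferase luminescence plotted against concentration.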

Male Wistar rats = assay: Object recognition task model; type: in vivo; conditions: dose mg/kg: Ex 1 0.1, Ex 2 0.03, Ex 4 0.03, Ex 13 1, Ex 23 0.01, Ex 37 10, Ex 43 0.3; for Exploration time mean ± S.E.M, Familiar object / Exploration time mean ± S.E.M, Novel object: choice trial T2, p.o.; for Inference: p.o.
Method: The cognition enhancing properties of compounds of this invention were estimated by using this model.
Male Wistar rats (230-280 grams) were used as experimental animals. Four animals were housed in each cage. Animals were kept on 20% food deprivation before one day and given water ad libitum throughout the experiment and maintained on a 12 hours light/dark cycle. Also the rats were habituated to individual arenas for 1 hour in the absence of any objects.
One group of 12 rats received vehicle (1 mL/Kg) orally and another set of animals received compound of the formula (I) either orally or i.p., before one hour of the familiar (T1) and choice trial (T2).
The experiment was carried out in a 50×50×50 cm open field made up of acrylic. In the familiarization phase, (T1), the rats were placed individually in the open field for 3 minutes, in which two identical objects (plastic bottles, 12.5 cm height×5.5 cm diameter) covered in yellow masking tape alone (a1 and a2) were positioned in two adjacent corners, 10 cms from the walls. After 24 hours of the (T1) trial for long-term memory test, the same rats were placed in the same arena as they were placed in T1 trial. Choice phase (T2) rats were allowed to explore the open field for 3 minutes in presence of one familiar object (a3) and one novel object (b) (Amber color glass bottle, 12 cm high and 5 cm in diameter). Familiar objects presented similar textures, colors and sizes. During the T1 and T2 trial, explorations of each object (defined as sniffing, licking, chewing or having moving vibrissae whilst directing the nose towards the object at a distance of less than 1 cm) were recorded separately by stopwatch. Sitting on an object was not regarded as exploratory activity, however, it was rarely observed.
T1 is the total time spent exploring the familiar objects (a1+a2).
T2 is the total time spent exploring the familiar object and novel object (a3+b).
The object recognition test was performed as described by Behaviour Brain Research, (1988), 31, 47-59.

[4] = CHO cells, human 5-HT4 receptor, luciferase reporter

## Nc1c(Cl)cc(C(=O)NCC2CCN(CC3CCOCC3)CC2)c2ncccc12.O=C(O)/C=C/C(=O)O [Example 1, 5-Amino-6-chloro-N-{[1-(tetrahydro-2H-pyran-4-ylmethyl)-4-piperidinyl]methyl}quinoline-8-carboxamide hemifumarate]
[1]; 1 mg/kg intravenous (bolus)
  Cmax: 149 ± 6 ng/mL
  Tmax: 0.08 h
  half-life: 1.9 ± 0.7 h
[1]; 3 mg/kg oral (gavage)
  AUC(0-t): 240 ± 35 ng·h/mL
  Cmax: 121 ± 25 ng/mL
  Tmax: 0.42 ± 0.14 h
  half-life: 4 ± 1.1 h
[1]
  bioavailability: 51 ± 5%
[2]; Wistar/Male rat
  Single dose Brain Penetration (Cb/Cp): 0.48 ± 0.03
[3]; [4]
  EC50: 0.04 nM
[3]; CHO cells, human 5-HT4 receptor, luciferase reporter, read-out: Emax
  Emax: 76%
Male Wistar rats
  Exploration time mean ± S.E.M, Familiar object: 5.94 ± 0.71 s
  Exploration time mean ± S.E.M, Novel object: 16.09 ± 1.75 s
  Inference: Active

## Nc1c(Cl)cc(C(=O)NCC2CCN(CC3CCOCC3)CC2)c2ncccc12.O=C(O)C(O)C(O)C(=O)O [Example 13, 5-Amino-6-chloro-N-{[1-(tetrahydro-2H-pyran-4-ylmethyl)-4-piperidinyl]methyl} quinoline-8-carboxamide L(+)-tartarate]
[1]; 1 mg/kg intravenous (bolus)
  AUC(0-t): 211 ± 20 ng·h/mL
  Cmax: 168 ± 12 ng/mL
  Tmax: 0.08 h
  half-life: 1.5 ± 0.3 h
[1]; 3 mg/kg oral (gavage)
  AUC(0-t): 235 ± 25 ng·h/mL
  Cmax: 76 ± 3 ng/mL
  Tmax: 0.5 h
  half-life: 1.7 ± 0.3 h
[1]
  bioavailability: 37 ± 4%
[2]; male, Wistar, rat, brain, po, 3 mg/kg, read-out: Single dose Brain Penetration (Cb/Cp)
  Kp: 0.41 ± 0.04
[3]
  Emax: 70%
[3]; [4]
  EC50: 0.09 nM
Male Wistar rats
  Exploration time mean ± S.E.M, Familiar object: 8.64 ± 1.33 s
  Exploration time mean ± S.E.M, Novel object: 15.11 ± 1.81 s
  Inference: Active
